Experimental data taken from a melting point compilation (Tetko et al.; mined from patent text by program, amines drawn as free bases though some values may be those of a salt).

SMILES	melting point [°C]
OCc1cnoc1-c1ccc(OC(F)(F)F)cc1	45 to 46
CC(CC1=Nc2cc(Cl)ccc2S(=O)(=O)N1)CC(C)(C)C (centres undefined)	243 to 244
COc1cc(C)c(C(O)C#CC(F)(F)F)c(C)c1C (centres undefined)	126 to 130
CCOC(=O)c1ccc(Cc2nc3n(-c4c(Cl)cc(Cl)cc4Cl)[nH]c(C(C)C)c-3c(=O)n2)cc1	233 to 235
C=C(Cl)CN1C(=O)c2ccccc2Oc2ncccc21	106 to 108
Cc1c(-c2cc(CO)c(Cl)cc2F)nn(C)c1C(F)(F)F	58
CC(=O)Oc1c(C)c(C)c2c(c1C)C(O)CC(C)(COc1ccc([N+](=O)[O-])cc1)O2 (centres undefined)	139 to 141
CC(C)(Oc1ccc(Cl)cc1)C(=O)NCCCn1ccnc1	83 to 84
CC(C)(C)c1nc(C=CC(=O)COc2ccccc2)nc(C(C)(C)C)c1O	98 to 100
CC(C)c1cccc(C(C)C)c1N1C(=O)c2ccc3c4cccc5c(C#CCCCCO)ccc(c6ccc(c2c36)C1=O)c54	> 300
CCCCCCNC(=O)CSc1nc(Cl)cc(Nc2cccc(C)c2C)n1	116 to 118
NC(=O)c1c(Cl)c(-c2ccccc2)n2c1CN(S(=O)(=O)c1ccccc1)CC2	250 to 252
CCOC(=O)C(C#N)=Cc1ccc(OCCc2nc(-c3ccccc3Cl)oc2C)cc1	120 to 121
CC(=O)N1N=C(c2ccncc2)OC1(C)C	117 to 118
O=C(c1sccc1-n1cccc1)N1CCOCC1	100
O=C(NO)[C@H](CNS(=O)(=O)c1ccc(OCc2ccc(Cl)c(Cl)c2)cc1)N1CCCCC1	166
S=C1NC2(CCCCC2)NC12CCCCC2	229
COC(=O)NC1CCc2ccc(Cl)cc2C1=O (centres undefined)	126 to 127
COc1ccc(SC2CC(=O)NC2=O)cc1 (centres undefined)	93 to 94
COC(=O)[C@H](Cc1ccc(O)cc1)NC(=O)C1(NC(=O)[C@@H](SC(C)=O)C(C)C)CCCC1	157 to 158

SMILES	melting point [°C]
COc1ccc(Cn2cc[nH]c2=O)cc1	132
CCOC(=O)c1ncc2[nH]c3c(c2c1COC)C(=O)CCC3	249 to 250
CC12Nc3ccccc3N1C(=O)c1ccccc12 (centres undefined)	182
CCCOc1ccc(S(=O)(=O)N2CCN(C(C)=O)CC2)cc1-c1nc2cc(Cl)c([N+](=O)[O-])cc2c(=O)[nH]1	215 to 217
COc1cc2c(cc1OC)C(C(S)(C#N)CCC(=O)OCCC(C)C)=NCC2 (centres undefined)	120
N#Cc1cc2cc(F)c(F)cc2o1	103
CN1CC(=O)Nc2cccc(Br)c2C1=O	232 to 233
CC(O)c1ccc(C2=CCCCC2)cc1 (centres undefined)	60 to 62
C=C(C)C(=O)N1CCC(C(=O)O)CC1	90 to 93
Cn1ccnc1SCc1nc(-c2ccc3c(c2)OCO3)c2cc3c(cc2n1)OCO3	155 to 160
CN(NC(=O)OC(C)(C)C)C(=O)C(C)(C)ON=C(C(=O)O)c1csc(N)n1	145
CC(C)=CCO[C@H]1NC(=O)[C@@H]1NC(=O)c1ccccc1	92
OC1(c2ccc(C3OCCO3)cc2)CCCCC1	95 to 97
c1ccc(C2=N[C@@H](CCP(c3ccccc3)c3ccccc3)CO2)cc1	52.5 to 54
CCCCCCC(C)(C)c1cc(OC)c(C2C(=O)[C@]3(C)CC[C@H]2C3(C)C)c(OC)c1 (some centres undefined)	64 to 65
COC1(C)CCc2ccc(O)cc2O1 (centres undefined)	107 to 108
C#CCCn1ncc2c(N)c(C(=O)OCC)c(C)nc21	101 to 103
FC(F)(F)c1cc(I)c2c(c1)ncn2-c1ccccc1	118 to 120
CC1CN(C(=O)COc2nc(-c3ccc(Cl)cc3)nc3c2CCCC3)CC(C)O1 (centres undefined)	265 to 268
CCNC1CN(c2ccc(CCO[Si](c3ccccc3)(c3ccccc3)C(C)(C)C)cc2)S(=O)(=O)c2sc(S(N)(=O)=O)cc21 (centres undefined)	66

SMILES	melting point [°C]
C=CCN1CCCC1CNC(=O)c1cc(S(N)(=O)=O)cc2c1OCCO2 (centres undefined)	143 to 144
Cc1cccc(Nc2nc(-c3cccc(C#N)c3)c(-n3cncn3)s2)n1	236 to 237
CCCC[C@H](NC(=O)[C@H](CC(C)C)NC(=O)COc1ccc(F)cc1)C(=O)CSCc1ccco1	88 to 91
CC(C)(C)c1cc(C[PH](=O)O)cc(C(C)(C)C)c1O	147 to 149
CCCC(=O)Nc1nn(COCC[Si](C)(C)C)c2cc(Cl)c(Br)cc12	130
CCCc1ccc(-c2cnc(C#N)c(C#N)n2)cc1	87 to 87.9
CC1(C)Oc2ccsc2C(NC(=O)c2ccncc2)C1O (centres undefined)	223 to 234
COc1ccc2[nH]c3ccccc3c2c1	148 to 150
CC(=O)N1CC(=O)N2CCc3ccccc3C2C1 (centres undefined)	144 to 145
Cc1cccc(OCCF)c1S(N)(=O)=O	103
CCCC12CCC3C4=C(CCC3C1CCC2=O)CC(OC)=CC4 (centres undefined)	128 to 131
O=c1ccn([C@H]2[C@H](O)[C@H](O)[C@@H](CO)C23CC3)c(=O)[nH]1	114 to 116
Cc1nnc2ccc(-c3ccc(Cl)cc3)cn12	192 to 194
CC1(O)c2ccccc2C(C)(O)c2ccccc21 (centres undefined)	178 to 179
CCn1cc(C(=O)O)c(=O)c2c(F)c(F)c(N3CCNC(C)C3)c(F)c21 (centres undefined)	220 to 222
O=[N+]([O-])c1ccccc1NCC(F)(F)F	84 to 89
Cc1c(C=NO)c2ccccc2n1-c1ccc(O)cc1	171 to 173
O=S(=O)(c1scc(Br)c1Br)n1nnc2c(Br)cc(C(F)(F)F)cc21	192 to 195

Continued, values first:

melting point [°C]	SMILES
136 to 137	CCOC(=O)c1cccc(-c2cc(C(=O)OCC)c(N)[nH]2)c1
223 to 224	CC(=O)N1CCC(n2ccc(-c3ccc(F)cc3)c2-c2ccncc2)CC1
262 to 263	O=C(Cn1c(-c2ccc(Cl)cc2)nc2ncccc21)c1ccccc1
214 to 215	COc1cc2nc(N3CCN(C(=O)CC(=O)c4ccccc4)CC3)nc(N)c2cc1OC
226 to 227	N#Cc1ccccc1CCC(=O)c1c(O)c2cccnc2n(-c2ccccc2)c1=O
128 to 130	COCn1ccc(C(=O)c2ccc(Cc3ccc(F)cc3)o2)c(O)c1=O
249	O=C(Nc1ccc(CNc2nc(N3CCC3)nc3ccccc23)cc1)c1ccc(F)cc1
159 to 160	CCCCCc1nc2c(N)nc3ccccc3c2n1CCCCNC(=O)Nc1ccccc1
185 to 187	Cc1cc(=O)c2ccc(OCCCN3CCC(NC(=O)c4ccccc4[N+](=O)[O-])CC3)cc2o1
252 to 254	O=C(Cc1c[nH]c2ccccc12)Nc1cc2c(cn1)[nH]c1ccccc12
136 to 141	CONC(=O)C(Cl)=Cc1cc(-n2c(=O)cc(C(F)(F)F)n(C)c2=O)ccc1Cl
193 to 196	COc1cc(-n2cccn2)ccc1-n1cc(OC)c(=O)c(C(C)=O)n1
101	CC[C@H](CC(=O)NC(=O)OCc1ccccc1)Nc1ccc(C(F)(F)F)cc1
175 to 176	N#Cc1cc(C(=O)NNC(=O)c2occc2-c2ccccc2Cc2ccccc2)ccc1O
153 to 154	O=C1CCC(CCO)(c2ccc(F)c(F)c2)CN1Cc1ccccc1 (centres undefined)
132 to 134	O=C(Cl)c1sc2cc(OCc3ccccc3)ccc2c1Cl
137	Cc1oc(-c2ccccc2)nc1COCc1cccc(COc2cc(Cl)ccc2C(=O)O)c1
100 to 102	CC(C)(C)OC(=O)c1ccc(C(=O)O)cc1
80 to 84	CC(=O)NNc1ccc(N2C(=S)SCC2(O)c2ccccc2)cc1 (centres undefined)
213 to 216	COc1ccc(-c2c3c(cc4ccc(OCc5ccccc5)cc24)C(=O)NC3)cc1
143	COC(=O)C(Oc1nc(C)cc(OC)n1)C(OCC(C)(C)C(=O)OC)(c1ccccc1)c1ccccc1 (centres undefined)

melting point [°C]	SMILES
> 250	Cc1nc2ccc(C(=O)O)nc2n1Cc1ccc(-c2ccccc2)cc1
86 to 88	O=C(c1ccccc1)c1ccc(SCC(O)CO)cc1 (centres undefined)
155	Cc1ncn(Nc2ccc(F)cc2)c1-c1ccccc1
128	CCCc1nc(Br)c(C(=O)O)n1Cc1ccc(-c2ccccc2S(=O)(=O)NC(=O)NCc2ccccc2)cc1
262 to 263	COc1ccc(C(=O)Nc2cccc(C(=O)O)c2)c2cc(C(=O)c3ccccc3)oc12
147 to 148	Oc1ccc(Nc2ccn(-c3ccccc3)n2)cc1
172 to 177	COc1cc2ncc(C#N)c(Nc3cccc(CSC(C)=O)c3)c2cc1OC
221 to 222	COc1ccc(C(=O)Nc2ccc(F)c(F)c2)cc1NC(=S)Nc1cccc(C(=O)O)c1
174	O=C(O)/C(=C\c1cc(-c2ccc3c(c2)OCO3)n(-c2cc(Cl)ccc2Cl)n1)c1cccc(Cl)c1
184 to 185	O=C(NCc1ccc(Cl)cc1)c1cnc2ccc(CC3CCOCC3)cc2c1O
241 to 242	COc1ccc(CN2CCOCC2)c(OC)c1-c1ccc(C[C@H](NC(=O)c2c(Cl)cccc2Cl)C(=O)O)cc1
158 to 160	CSc1ccc(C(=O)O)cc1OC1CCCC1
116	CC(CCN1CCN(c2ccc(F)cc2)CC1)N1c2cccc3cccc(c23)S1(=O)=O (centres undefined)
103 to 104	CC1(C)CCC(C)(C)c2cc(C(=O)COc3ccc(C(=O)OCc4ccccc4)c(O)c3)ccc21
105 to 106	CCCCCCOc1cc(-c2cccc(N)c2)c(OCCCCCC)cc1-c1cccc(N)c1
129 to 130	O=C(NNc1ccccc1C(F)(F)F)c1c(F)cccc1F
79 to 80	CCOCCNC(=O)c1cccc(-c2cccc3cc(Cc4cc(F)cc(Cl)c4)sc23)c1
113	CC(=O)c1ccc(OCC(=O)NC2CCN(Cc3ccc(Cl)c(Cl)c3)CC2)cc1
229 to 230	O=C(O)C1=C(c2ccc3c(c2)OCO3)c2ccccc2S(=O)(=O)N1Cc1ccc2c(c1)OCO2
125 to 127	CN(NC(=O)OCc1ccccc1)C(=O)c1cc(OCc2ccccc2)c(OCc2ccccc2)c(CNC(=O)OC(C)(C)C)n1
